According to patent US20190070165A1, “N-HYDROXYISOQUINOLINEDIONE INHIBITORS OF HBV REPLICATION” (Saint Louis University, priority 2016, published 2019):

What was measured:
[1] = test system: HBV replication; assay: HBV replication inhibition assay in HepDES19 cells (strand-preferential q-PCR); type: cell-based, Hepatitis B virus; details: for HBV replication inhibition (qualitative): Table 3, qualitative screen at 20 μM
Experimental: HBV replication assay. […] Cells were seeded into 6-well plates and incubated in DMEM/F12, 10% fetal bovine serum (FBS), 1% penicillin/streptomycin (P/S) with 1 μg/mL tetracycline. Tetracycline was withdrawn after 24 hours. The test compound was applied to duplicate wells 48 hours later in medium containing a final DMSO concentration of 1%, and medium containing the compound was refreshed daily for the following two days. Cells were harvested and non-encapsidated nucleic acids were digested with micrococcal nuclease (New England Biolabs). HBV DNA was purified from capsids using QIAamp Cador Pathogen Mini Kit (Qiagen) with proteinase K incubation overnight at 37° C. TaqMan PCR was performed for 40 cycles at an annealing temperature of 60° C.
Thirty-nine HID, HPD, flutimide, and related POH compounds (Structures shown in FIG. 3) were screened for their ability to inhibit HBV replication in HepDES19 cells. […] Inhibition was calculated as the amount of plus-polarity DNA relative to the DMSO treated controls.
Briefly, HepDES19 were seeded in 12-well plates at 2×10^5 cells per well in the absence of tetracycline. Test compound was applied to cells 48 hours after removal of tetracycline. […] HBV DNA was purified from capsids using a QIAamp pathogen minikit with proteinase K digestion extended to overnight at 37° C. TaqMan PCR was performed for 40 cycles with an annealing temperature of 60° C.

[2] = test system: HSV-1; assay: HSV-1 replication inhibition assay in Vero cells; type: cell-based, herpes simplex virus 1; details: 5 μM, Vero cells; for log reduction at 5 µM: Human alphaherpesvirus 1, 24 h, read-out: HSV-1 suppression (log10 at 5 μM), class symbol
Experimental: Thirty-seven compounds were counter-screened for efficacy against HSV-1 to evaluate specificity of the inhibitors and to help determine if the efficacy against HBV replication may be due to an unsuspected indirect effect on the cells. Vero cells infected with HSV-1 at an MOI of 0.1 were treated with 5 μM of compound for 24 hours. Inhibition was calculated as log 10 suppression of plaque forming units compared with DMSO vehicle control.
Vero cells were maintained DMEM supplemented with 3% newborn calf serum, 3% bovine growth serum, 2 mM L-glutamine, and P/S. Test compounds were applied to the cells in the presence of 0.05% DMSO. The herpes simplex virus 1 (HSV-1) strain used for screening was a de-identified clinical isolate from the Saint Louis University Hospital passaged once in culture.
Compounds and virus were diluted in phosphate buffered saline (PBS) containing 2% newborn calf serum and 2 mM L-glutamine so that the final concentration of compound was 5 μM. The cells were incubated at 37° C. for 1 hour with the virus containing inoculum, then the inoculum was removed and the wells were washed once in PBS. Compound diluted to 5 μM in supplemented DMEM was added and cells were incubated at 37° C. for an additional 23 hours. The plates were then microscopically inspected for cytopathic effect (CPE) or toxicity and then frozen at −80° C. Virus titers for wells with limited CPE compared to DMSO vehicle-treated controls were then determined by plaque assay on Vero cells. Each experiment was repeated at least once.

[3] = molecular target: HBV RNaseH (Hepatitis B virus genotype D subtype ayw, UniProt P03156); details: Table 3, compounds at 100, 60 and 20 μM; compounds 1-91 and 138-140 previously reported (Cai et al., 2014)
HBV RNaseH, sequence (P03156 671-832): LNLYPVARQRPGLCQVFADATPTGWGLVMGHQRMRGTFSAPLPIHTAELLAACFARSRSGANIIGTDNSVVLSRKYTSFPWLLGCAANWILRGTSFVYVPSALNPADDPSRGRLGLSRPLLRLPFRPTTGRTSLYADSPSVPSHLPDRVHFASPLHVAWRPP
Experimental: RNaseH expression and purification. […] The enriched extracts were dialyzed into 50 mM HEPES pH 7.3, 300 mM NaCl, 20% glycerol, and 5 mM DTT and stored in liquid nitrogen.
Oligonucleotide-directed RNA cleavage assay. […] This mixture was incubated with test compounds in 50 mM Tris pH 8.0, 190 mM NaCl, 5 mM MgCl2, 3.5 mM DTT, 0.05% NP40, 6% glycerol, and 1% DMSO at 42° C. for 90 minutes. Cleavage products were resolved by denaturing polyacrylamide gel electrophoresis, detected by autoradiography, and quantified using ImageJ. Non-specific background values were determined from the incorrect oligonucleotide negative control lane and subtracted from all experimental values. IC50 values were then calculated with GraphPad Prism using three-parameter log(inhibitor) vs. response non-linear curve fitting with the curve minimum set to zero to reflect background subtraction.
The HBV RNaseH inhibition activity of the 16 previously untested compounds was examined using an oligonucleotide-directed cleavage assay. Compounds were incubated with the HBV RNaseH, a ^32P-labeled RNA substrate plus a complementary DNA oligonucleotide and compounds at 100, 60, and 20 μM and the amount of the RNA cleavage products was measured following resolution on an acrylamide gel.
Briefly, a ^32P-labeled RNA was combined with a DNA oligonucleotide and the RNA:DNA substrate was incubated in the presence of the RNaseH and test compounds in 50 mM tris pH 8.0, 190 mM NaCl, 5 mM MgCl2, 3.5 mM DTT, 0.05% NP40, 6% glycerol, and 1% DMSO at 42° C. for 90 minutes. The products were resolved by gel electrophoresis and detected by audioradioagraphy.

Compound	HBV replication inhibition (qualitative) [1]	HSV-1 suppression (log10 at 5 μM) ([2]; 24 hours, MOI 0.1, plaque forming units vs DMSO) [log10]	Inhibition of HBV RNaseH, Oligonucleotide directed cleavage assay [3]	log reduction at 5 µM [2]	HBV replication inhibition / activity ([1]; HepDES19 cells)
Cc1cc(C2CCCCC2)n(O)c(=O)c1 [Compound 41, Ciclopirox, reference compound]	− (No inhibition detected at 20 μM)	5.0	− (No inhibition detected at 100 μM)	–	–
CCOC(=O)C1=CC2C=CC=CC2N(O)C1=O (stereo not drawn) [Compound 42]	− (No inhibition detected at 20 μM)	–	− (No inhibition detected at 100 μM)	< 1	–
O=C1C=CC2C=CC=CC2N1O (stereo not drawn) [Compound 43]	− (No inhibition detected at 20 μM)	–	− (No inhibition detected at 100 μM)	< 1	–
Cc1cc(C)n(O)c(=O)c1C#N [Compound 44]	− (No inhibition detected at 20 μM)	–	− (No inhibition detected at 100 μM)	< 1	–
O=C1c2cccc3cccc(c23)C(=O)N1O [Compound 45]	− (No inhibition detected at 20 μM)	–	− (No inhibition detected at 100 μM)	< 1	–
O=C1c2ccc3ccccc3c2C(=O)N1O [Compound 128]	–	–	− (No inhibition detected at 100 μM)	< 1	–
O=C(O)c1nc(Cl)c2ccccc2c1O [Compound 132]	− (No inhibition detected at 20 μM)	–	− (No inhibition detected at 100 μM)	–	–
O=C1CCC(=O)N1O [Compound 139]	− (No inhibition detected at 20 μM)	–	− (No inhibition detected at 100 μM)	–	inactive
CC1=C(C#N)C(=O)NC(=O)C1Cc1ccc(-c2ccccc2)o1 (stereo not drawn) [Compound 140]	− (No inhibition detected at 20 μM)	–	− (No inhibition detected at 100 μM)	< 1	–
CC1CC(=O)N(O)C(CC(C)CC(C)(C)C)C1 (stereo not drawn) [Compound 191, Piroctone olamine, reference compound]	− (No inhibition detected at 20 μM)	–	− (No inhibition detected at 100 μM)	–	–
Oc1nc2ccccc2nc1O [Compound 198, 2,3-dihydroxy-quinoxaline]	− (No inhibition detected at 20 μM)	–	− (No inhibition detected at 100 μM)	< 1	–
O=C1Cn2c(cc3ccccc32)C(=O)N1O [Compound 236]	− (No inhibition detected at 20 μM)	–	− (No inhibition detected at 100 μM)	< 1	–
O=C1Cn2c(cc3cc(Cl)ccc32)C(=O)N1O [Compound 237]	− (No inhibition detected at 20 μM)	–	− (No inhibition detected at 100 μM)	< 1	–
COc1ccc2c(c1)cc1n2CC(=O)N(O)C1=O [Compound 238]	− (No inhibition detected at 20 μM)	–	− (No inhibition detected at 100 μM)	< 1	–
O=C1Cn2c(cc3ccccc32)C(=O)N1 [Compound 239]	− (No inhibition detected at 20 μM)	–	− (No inhibition detected at 100 μM)	< 1	–
O=C1Cn2c(cc3cc(F)ccc32)C(=O)N1O [Compound 241]	− (No inhibition detected at 20 μM)	–	− (No inhibition detected at 100 μM)	< 1	–
